# pIC50: −log10 of the molar value.
# Tested on: 966289-007-R4-J1-PDC complex spheroid viability
# Test: Anticancer human tumor 966289-007-R4-J1-PDC patient-derived pancreatic adenocarcinoma cell line growth inhibition [RAS]
# Settings: for pIC50: curve of first compound; for viability, T/C: stronger effect = lower value
# Summary of the method: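 Agents were tested in combination matrices in half-log decrements from a top concentration at or near clinical Cmax (10 microM if undetermined). Targets were multi-cell spheroids of tumour lines plus HUVEC and MSC stromal cells.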
# [1] = second compound 0.000949 µM, first compound 0.00316 µM
# [2] = second compound 0.000949 µM, first compound 0.01 µM
# [3] = second compound 0.000949 µM, first compound 0.0316 µM
# [4] = second compound 0.000949 µM, first compound 0.1 µM
# [5] = second compound 0.000949 µM, first compound 0.316 µM
# [6] = second compound 0.000949 µM, first compound 1 µM
# [7] = second compound 0.003 µM, first compound 0.00316 µM
# [8] = second compound 0.003 µM, first compound 0.01 µM
# [9] = second compound 0.003 µM, first compound 0.0316 µM
# [10] = second compound 0.003 µM, first compound 0.1 µM
# [11] = second compound 0.003 µM, first compound 0.316 µM
# [12] = second compound 0.003 µM, first compound 1 µM
# [13] = second compound 0.00949 µM, first compound 0.00316 µM
# [14] = second compound 0.00949 µM, first compound 0.01 µM
# [15] = second compound 0.00949 µM, first compound 0.0316 µM
# [16] = second compound 0.00949 µM, first compound 0.1 µM
# [17] = second compound 0.00949 µM, first compound 0.316 µM
# [18] = second compound 0.00949 µM, first compound 1 µM
# [19] = second compound 0.03 µM, first compound 0.00316 µM
# [20] = second compound 0.03 µM, first compound 0.01 µM
# [21] = second compound 0.03 µM, first compound 0.0316 µM
# [22] = second compound 0.03 µM, first compound 0.1 µM
# [23] = second compound 0.03 µM, first compound 0.316 µM
# [24] = second compound 0.03 µM, first compound 1 µM
# [25] = second compound 0.0949 µM, first compound 0.00316 µM
# [26] = second compound 0.0949 µM, first compound 0.01 µM
# [27] = second compound 0.0949 µM, first compound 0.0316 µM
# [28] = second compound 0.0949 µM, first compound 0.1 µM
# [29] = second compound 0.0949 µM, first compound 0.316 µM
# [30] = second compound 0.0949 µM, first compound 1 µM
# [31] = second compound 0.3 µM, first compound 0.00316 µM
# [32] = second compound 0.3 µM, first compound 0.01 µM
# [33] = second compound 0.3 µM, first compound 0.0316 µM
# [34] = second compound 0.3 µM, first compound 0.1 µM
# [35] = second compound 0.3 µM, first compound 0.316 µM
# [36] = second compound 0.3 µM, first compound 1 µM
# 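Further: spheroids exposed to agents for one week before readout.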
# 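Wherever viability, T/C is given: percent viability relative to DMSO vehicle control wells as 100%.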
compound,measurement,setting,value
Nc1ccn(C2OC(CO)C(O)C2(F)F)c(=O)n1 (stereo unspecified) + CCn1c(-c2cccnc2C(C)OC)c2c3cc(ccc31)N1CCOC(CC(NC(=O)C(C(C)C)N(C)C(=O)C3(F)CCN(C(=O)C#CC(C)(C)N(C)C)CC3)C(=O)N3CCCC(N3)C(=O)OCC(C)(C)C2)C1,pIC50,second compound 0.000949 µM,8.15
same,pIC50,second compound 0.003 µM,8.25
same,pIC50,second compound 0.00949 µM,8.35
same,pIC50,second compound 0.03 µM,8.37
same,pIC50,second compound 0.0949 µM,8.33
same,pIC50,second compound 0.3 µM,8.28
same,"viability, T/C",[1],119%
same,"viability, T/C",[2],18.9%
same,"viability, T/C",[3],1.45%
same,"viability, T/C",[4],0.78%
same,"viability, T/C",[5],0.73%
same,"viability, T/C",[6],0.9%
same,"viability, T/C",[7],87.3%
same,"viability, T/C",[8],12.3%
same,"viability, T/C",[9],1.03%
same,"viability, T/C",[10],0.84%
same,"viability, T/C",[11],1.07%
same,"viability, T/C",[12],1.18%
same,"viability, T/C",[13],67.6%
same,"viability, T/C",[14],9.69%
same,"viability, T/C",[15],0.94%
same,"viability, T/C",[16],0.85%
same,"viability, T/C",[17],0.87%
same,"viability, T/C",[18],1.1%
same,"viability, T/C",[19],64%
same,"viability, T/C",[20],8.78%
same,"viability, T/C",[21],0.83%
same,"viability, T/C",[22],1.03%
same,"viability, T/C",[23],1.23%
same,"viability, T/C",[24],0.98%
same,"viability, T/C",[25],72.2%
same,"viability, T/C",[26],6.25%
same,"viability, T/C",[27],0.85%
same,"viability, T/C",[28],0.82%
same,"viability, T/C",[29],1.11%
same,"viability, T/C",[30],1.25%
same,"viability, T/C",[31],86.9%
same,"viability, T/C",[32],3.9%
same,"viability, T/C",[33],0.92%
same,"viability, T/C",[34],0.98%
same,"viability, T/C",[35],0.91%
same,"viability, T/C",[36],1.22%
C=CC(=O)Nc1cc(Nc2nccc(-c3cn(C)c4ccccc34)n2)c(OC)cc1N(C)CCN(C)C + CCn1c(-c2cccnc2C(C)OC)c2c3cc(ccc31)N1CCOC(CC(NC(=O)C(C(C)C)N(C)C(=O)C3(F)CCN(C(=O)C#CC(C)(C)N(C)C)CC3)C(=O)N3CCCC(N3)C(=O)OCC(C)(C)C2)C1,pIC50,second compound 0.000949 µM,< 6.00
same,pIC50,second compound 0.003 µM,< 6.00
same,pIC50,second compound 0.00949 µM,< 6.00
same,pIC50,second compound 0.03 µM,< 6.00
same,pIC50,second compound 0.0949 µM,< 6.00
same,pIC50,second compound 0.3 µM,< 6.00
same,"viability, T/C",[1],101%
same,"viability, T/C",[2],101%
same,"viability, T/C",[3],99.9%
same,"viability, T/C",[4],56.5%
same,"viability, T/C",[5],77.5%
same,"viability, T/C",[6],67.8%
same,"viability, T/C",[7],106%
same,"viability, T/C",[8],84.3%
same,"viability, T/C",[9],82.1%
same,"viability, T/C",[10],56.4%
same,"viability, T/C",[11],55.1%
same,"viability, T/C",[12],61.9%
same,"viability, T/C",[13],87%
same,"viability, T/C",[14],97%
same,"viability, T/C",[15],90.8%
same,"viability, T/C",[16],66.4%
same,"viability, T/C",[17],78.5%
same,"viability, T/C",[18],78.4%
same,"viability, T/C",[19],65%
same,"viability, T/C",[20],90%
same,"viability, T/C",[21],99.3%
same,"viability, T/C",[22],69.8%
same,"viability, T/C",[23],92.7%
same,"viability, T/C",[24],77.5%
same,"viability, T/C",[25],76.9%
same,"viability, T/C",[26],93.5%
same,"viability, T/C",[27],117%
same,"viability, T/C",[28],67.8%
same,"viability, T/C",[29],113%
same,"viability, T/C",[30],67.7%
same,"viability, T/C",[31],81.5%
same,"viability, T/C",[32],107%
same,"viability, T/C",[33],111%
same,"viability, T/C",[34],101%
same,"viability, T/C",[35],108%
same,"viability, T/C",[36],90.8%
CCN1CCN(Cc2ccc(Nc3ncc(F)c(-c4cc(F)c5nc(C)n(C(C)C)c5c4)n3)nc2)CC1 + C#Cc1c(F)ccc2cc(O)cc(-c3ncc4c(N5CC6CCC(C5)N6)nc(OCC56CCCN5CC(F)C6)nc4c3F)c12,pIC50,second compound 0.0316 µM,< 6.00
same,pIC50,second compound 0.1 µM,< 6.00
same,pIC50,second compound 0.316 µM,< 6.00
same,pIC50,second compound 1 µM,< 6.00
same,pIC50,second compound 3.16 µM,< 6.00
same,pIC50,second compound 10 µM,< 6.00
same,"viability, T/C","second compound 0.0316 µM, first compound 0.00316 µM",121%
same,"viability, T/C","second compound 0.0316 µM, first compound 0.01 µM",102%
same,"viability, T/C","second compound 0.0316 µM, first compound 0.0316 µM",107%
same,"viability, T/C","second compound 0.0316 µM, first compound 0.1 µM",92.8%
same,"viability, T/C","second compound 0.0316 µM, first compound 0.316 µM",92.1%
same,"viability, T/C","second compound 0.0316 µM, first compound 1 µM",71.8%
same,"viability, T/C","second compound 0.1 µM, first compound 0.00316 µM",113%
same,"viability, T/C","second compound 0.1 µM, first compound 0.01 µM",108%
same,"viability, T/C","second compound 0.1 µM, first compound 0.0316 µM",102%
same,"viability, T/C","second compound 0.1 µM, first compound 0.1 µM",82.7%
same,"viability, T/C","second compound 0.1 µM, first compound 0.316 µM",92.8%
same,"viability, T/C","second compound 0.1 µM, first compound 1 µM",71.1%
same,"viability, T/C","second compound 0.316 µM, first compound 0.00316 µM",114%
same,"viability, T/C","second compound 0.316 µM, first compound 0.01 µM",112%
same,"viability, T/C","second compound 0.316 µM, first compound 0.0316 µM",100%
same,"viability, T/C","second compound 0.316 µM, first compound 0.1 µM",95.9%
same,"viability, T/C","second compound 0.316 µM, first compound 0.316 µM",84.6%
same,"viability, T/C","second compound 0.316 µM, first compound 1 µM",69.9%
same,"viability, T/C","second compound 1 µM, first compound 0.00316 µM",104%
same,"viability, T/C","second compound 1 µM, first compound 0.01 µM",103%
same,"viability, T/C","second compound 1 µM, first compound 0.0316 µM",116%
same,"viability, T/C","second compound 1 µM, first compound 0.1 µM",103%
same,"viability, T/C","second compound 1 µM, first compound 0.316 µM",79.4%
same,"viability, T/C","second compound 1 µM, first compound 1 µM",81.7%
same,"viability, T/C","second compound 3.16 µM, first compound 0.00316 µM",108%
same,"viability, T/C","second compound 3.16 µM, first compound 0.01 µM",109%
same,"viability, T/C","second compound 3.16 µM, first compound 0.0316 µM",113%
same,"viability, T/C","second compound 3.16 µM, first compound 0.1 µM",93.3%
same,"viability, T/C","second compound 3.16 µM, first compound 0.316 µM",88.8%
same,"viability, T/C","second compound 3.16 µM, first compound 1 µM",77%
same,"viability, T/C","second compound 10 µM, first compound 0.00316 µM",108%
same,"viability, T/C","second compound 10 µM, first compound 0.01 µM",90.3%
same,"viability, T/C","second compound 10 µM, first compound 0.0316 µM",121%
same,"viability, T/C","second compound 10 µM, first compound 0.1 µM",89.2%
same,"viability, T/C","second compound 10 µM, first compound 0.316 µM",93.4%
same,"viability, T/C","second compound 10 µM, first compound 1 µM",66%
